Tests used:
Format in all cases: cell-based, human
[1] = test system: NOX activity in DMSO-differentiated HL60 cells; assay: Amplex Red measurement of extracellular hydrogen peroxide (NOX activity) in DMSO-differentiated HL60 cells; conditions: DPI 10 μM, 'usually'
Protocol: Human acute myeloid leukemia cell line HL-60 was cultured in RPMI 1640 (Invitrogen) supplemented with 10% heat-inactivated calf serum, 2 mM glutamine, 100 U/mL penicillin (Sigma), and 100 μg streptomycin (Sigma) at 37° C. under a humidified atmosphere of 5% CO2. HL60 differentiation to the neutrophil phenotype was triggered by adding Me2SO (final concentration 1.25% v/v for 6 days) to the culture medium.
Extracellular hydrogen peroxide was measured using Amplex UltraRed (Molecular Probes). Cells were trypsinized (1× Trypsin-EDTA), collected by centrifugation, and resuspended in HBSS supplemented with 1% glucose. Cells were seeded into black 96-well plates at a density of 50'000 cells in 200 μl testing buffer (HBSS 1% glucose containing 0.005 U/mL horseradish peroxidase (Roche) and 50 μM Amplex Red in the presence or absence of compounds according to the invention. As a control, DPI was included at a final concentration of 10 μM The plates were placed in the fluorescent Optima Fluorescent plate reader and kept at 37° C. during 20 min. Fluorescence was measured for […] with excitation and emission wavelengths of 544 and 590 nm respectively. NOX activities were expressed as % of the activity in control cells. […]
The table 1 below summarizes the percentage of inhibition of NOX activity as measured by Amplex Red using DMSO-differentiated HL60 cells as described above: […]

NOX activity in HUVEC = assay: H2DCF-DA (DCF fluorescence) ROS measurement in TGF-β stimulated HUVEC; conditions: 'usually'
Protocol: Human Umbilical Vein Endothelial Cells (HUVEC)
HUVEC are cultured in endothelial basal medium supplemented with hydrocortisone (1 μg/mL, CalbioChem), bovine brain extract (12 μg/mL), gentamicin (50 μg/mL, CalbioChem), amphotericin B (50 ng/mL, CalBioChem EGF (10 ng/mL, and 10% FCS until the fourth passage. When the fifth passage was started, cells were cultured with a lower concentration of FCS (2%) in the absence of EGF, if not indicated otherwise. All experiments were done with cells of the fifth passage. The cells were incubated with OxLDL (oxidized low-density lipoprotein) or its buffer as control for 24 h, before detection of O2^− formation.
4. 2′,7′-dichlorodihydrofluorescein diacetate (H2DCF-DA)
HUVEC were plated on coverslips and made quiescent overnight in 0.5% BSA before stimulation with TGF-β. Cells were loaded for 10 minutes with 5 μM CM-H2DCFDA in phenol-red-free medium in the dark and then treated with TGF-β (R&D Systems) in the presence or absence of compounds according to the invention. […] DCF fluorescence was visualized at an excitation wavelength of 488 nm and emission at 515 to 540 nm. […] For calculation, the absorbance at […] was normalized to absorbance at […] for each individual well. […] NOX activities were expressed as % of the activity in control cells. […]

[2] = test system: NOX activity (ROS in cells); assay: Chemiluminescence (luminol) measurement of ROS in cells; conditions: 'usually'
Protocol: 3. Chemiluminescence (Luminol)
ROS was measured using the chemiluminescent probe luminol. Cells were cultured and plated as for Amplex Red except that the Amplex Red agent was replaced by 10 μg/mL luminol (Sigma 09235). Light emission was recorded continuously at 37° C. for 60 minutes using the luminescence function of the FluoStar Optima fluorescent plate reader. The mean of the four blank values was subtracted from each corrected value for each time point. NOX activities were expressed as % of the activity in control cells. Residual activity of DPI-treated cells was usually <10%.

[3] = test system: NOX activity (superoxide formation in cells); assay: Nitroblue tetrazolium (NBT) test of intracellular and extracellular superoxide in cell cultures; conditions: DPI 10 μM, 'usually'
Protocol: The activity of the compounds according to the invention may be tested for their activity in the inhibition or reduction of formation of reactive oxygen species (ROS) from oxygen in cells. The activity of the compounds is tested in the following cell cultures by different techniques such as nitroblue tetrazolium, Amplex Red, Chemiluminescence (Luminol) and 2′,7′-dichlorodihydrofluorescein diacetate (H2DCF-DA) according to the protocols detailed below.
Human microglia cell line (HMC3, human microglia clone 3) (Janabi et al, 1995, Neurosci Lett 195:105) were cultured in MEM (Eagle's minimum essential medium) containing 10% FBS with 50 U/mL penicillin G sodium 50 μg/mL streptomycin sulfate, and incubated at 37° C. for 24 hours. IFN-γ (human IFN-γ, Roche. 11 040 596 001) was added to the culture medium for a final concentration of 10 ng/mL 24 h, before detection of O2^− formation. […]
Intracellular and extracellular superoxide was measured by a colorimetric technique using a quantitative nitroblue tetrazolium (NBT) test. SOD-inhibitable conversion of NBT to formazan, a fine blue precipitate, in the presence of superoxide anion was measured using Fluostar Optima spectrometer (BMG labtech). […] The absorption was measured at 630 nm. For calculation, the absorbance at 630 nm was normalized for each individual well. […] NOX activities were expressed as % of the activity in control cells. […]

Measured: Residual activity of DPI-treated cells (NOX activity as % of the activity in control cells)

c1ccc([I+]c2ccccc2)cc1 [DPI, Diphenyliodonium]
< 10%: all assays above

Reference: patent publication US8288432B2, “Tetrahydroindole derivatives as NADPH oxidase inhibitors” (Genkyotex SA, priority 2007, dated 2012)
